# Reference: ChEMBL document CHEMBL3988442, “University of Dundee, Small-Polar-MMV Screening Library” (2021)
# Test system: Mycobacterium tuberculosis
# Test: Cornell M. t heat shock assay
# Type: functional, organism-based
# Details: Mycobacterium tuberculosis
row,SMILES,IC50
1,Cc1cccc(NC2CCN(C(=O)Nc3ccc(F)c(F)c3)CC2)n1,> 49 µM
2,Cc1csc(NC(=O)c2cnc(C3CCCN3)cn2)n1.Cl (configuration not stated),> 100 µM

# Target: T1, Ubiquitin-activating enzyme e1, putative (Leishmania donovani (strain BPK282A1), UniProt E9BSI1)
# T1 sequence (E9BSI1 whole entry): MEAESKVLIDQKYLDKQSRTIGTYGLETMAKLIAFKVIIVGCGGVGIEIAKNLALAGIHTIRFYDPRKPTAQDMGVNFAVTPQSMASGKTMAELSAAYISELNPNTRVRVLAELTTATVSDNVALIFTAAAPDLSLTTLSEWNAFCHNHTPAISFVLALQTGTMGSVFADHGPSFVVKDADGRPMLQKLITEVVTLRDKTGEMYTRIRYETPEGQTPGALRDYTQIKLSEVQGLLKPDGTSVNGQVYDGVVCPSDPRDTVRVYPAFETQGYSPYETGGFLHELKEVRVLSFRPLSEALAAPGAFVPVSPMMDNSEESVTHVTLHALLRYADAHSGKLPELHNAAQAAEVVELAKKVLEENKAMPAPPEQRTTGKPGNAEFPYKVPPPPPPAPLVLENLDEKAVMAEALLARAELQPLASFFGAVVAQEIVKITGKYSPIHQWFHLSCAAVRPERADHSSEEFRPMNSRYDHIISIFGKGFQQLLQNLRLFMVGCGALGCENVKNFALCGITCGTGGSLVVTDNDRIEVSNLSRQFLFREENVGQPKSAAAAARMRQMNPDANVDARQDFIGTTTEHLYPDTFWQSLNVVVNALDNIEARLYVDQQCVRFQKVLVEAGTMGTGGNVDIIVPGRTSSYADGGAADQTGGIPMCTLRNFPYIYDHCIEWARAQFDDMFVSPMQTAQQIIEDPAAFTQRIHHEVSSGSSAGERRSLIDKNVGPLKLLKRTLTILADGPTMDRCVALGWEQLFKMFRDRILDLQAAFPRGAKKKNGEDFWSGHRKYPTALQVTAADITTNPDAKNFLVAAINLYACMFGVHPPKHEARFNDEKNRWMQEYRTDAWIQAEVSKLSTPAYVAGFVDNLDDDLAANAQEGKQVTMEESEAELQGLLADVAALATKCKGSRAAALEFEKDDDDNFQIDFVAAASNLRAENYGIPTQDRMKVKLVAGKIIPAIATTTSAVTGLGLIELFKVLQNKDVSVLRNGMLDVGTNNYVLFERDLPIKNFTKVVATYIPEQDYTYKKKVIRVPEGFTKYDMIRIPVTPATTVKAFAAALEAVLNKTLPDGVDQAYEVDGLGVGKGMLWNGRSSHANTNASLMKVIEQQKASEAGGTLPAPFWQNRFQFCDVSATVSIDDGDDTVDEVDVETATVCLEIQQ
# Test: Leishmania donovani Ubiquitin Activating Enzyme (LdE1)
# Type: functional
# Details: not given
row,SMILES,IC50
1,CC[C@@H]1N(CC2CCC2)CCC[C@]12CCC(=O)N2Cc1ccncc1,> 100 µM
2,Cc1ccc(C(=O)N2C[C@@H]3COC[C@]3(COCc3cccnc3)C2)cn1,> 100 µM
3,Cc1nc(C(=O)N2C[C@@H]3COC[C@]3(COCc3cccnc3)C2)cs1,> 100 µM
4,O=C(c1ncccn1)N1C[C@@H]2COC[C@]2(COCc2cccnc2)C1,> 100 µM
5,CC[C@H]1NCCC[C@]12CCC(=O)N2Cc1ccncc1,> 100 µM
6,Cn1cc(C(=O)N2C[C@@H]3COC[C@]3(COCc3cccnc3)C2)cn1,> 100 µM
7,COCCC(=O)N1C[C@@H]2COC[C@]2(COCc2cccnc2)C1,> 100 µM
8,Cc1cc(C(=O)N2C[C@@H]3COC[C@]3(COCc3cccnc3)C2)no1,> 100 µM
9,CC(C)N1CCC(Cc2cc(-c3cccc(C(=O)O)c3)ncn2)CC1,> 100 µM
10,CC(C)N1CCC(Cc2cncc(-c3cccc(C(=O)O)c3)n2)CC1,> 100 µM
11,COCc1nc2cc(NCc3csc(C)n3)ccc2o1,> 100 µM
12,COCc1nc2cc(NCc3ncc[nH]3)ccc2o1,> 100 µM
13,CC(C)N1CCC(Cc2cc(-c3ccccc3C(=O)O)ncn2)CC1,> 100 µM
14,CC(C)N1CCC(Cc2cc(-c3cccc(C(=O)O)c3)ncn2)C1 (configuration not stated),> 100 µM
15,CC(C)N1CCC(Cc2cnc(-c3cccc(C(=O)O)c3)cn2)C1 (configuration not stated),> 100 µM
16,CC(NC(=O)NCCNc1ccccn1)c1cccs1 (configuration not stated),> 100 µM
17,CC(C)C(NC(=O)Nc1ccccn1)c1cccs1 (configuration not stated),> 100 µM
18,CC(C)C(NC(=O)NCCNc1ncccn1)c1cccs1 (configuration not stated),> 100 µM
19,CC(C)C(NC(=O)NCCNc1cnccn1)c1cccs1 (configuration not stated),> 100 µM
20,Cc1nc(C)n(CC2CCCN(Cc3ncc(C(C)(C)C)o3)C2)n1 (configuration not stated),> 100 µM
21,CCC1CCCCN1Cc1ncc(C(C)(C)C)o1 (configuration not stated),> 100 µM
22,CCc1nnc(CN2CCCCC2Cn2nc(C)nc2C)o1 (configuration not stated),> 100 µM
23,Cc1nc(C)n(CC2CCCCN2Cc2nc3ccccc3o2)n1 (configuration not stated),> 100 µM
24,Cc1nc(C)n(CC2CCCN2Cc2ncc(C(C)(C)C)o2)n1 (configuration not stated),> 100 µM
25,Cc1nc(C)n(CC2CCCCN2Cc2cnc(C)s2)n1 (configuration not stated),> 100 µM
26,Cc1cnn(CC2CCCCN2Cc2ncc(C(C)(C)C)o2)c1 (configuration not stated),> 100 µM

row,SMILES,IC50
1,Cc1cc(C)n(CC2CCCN2Cc2ncc(C(C)(C)C)o2)n1 (configuration not stated),> 100 µM
2,O=C(NCc1ccccc1Cn1cncn1)C1CCC1,> 100 µM
3,O=C(NCc1ccccc1Cn1cncn1)C1CC1,> 100 µM
4,O=C(NCc1ccccc1Cn1cncn1)C1CCCC1,> 100 µM
5,O=C(NCc1ccccc1Cn1cncn1)C1CCCCC1,> 100 µM
6,O=C(CCS(=O)(=O)C1CCCC1)NCc1ccccc1Cn1cncn1,> 100 µM
7,O=C(CCNC(=O)C1CCCC1)NCc1ccccc1Cn1ccnc1,> 100 µM
8,O=C(CCC1CCCO1)NCc1ccccc1Cn1cncn1 (configuration not stated),> 100 µM
9,CC(Cn1cccn1)NCCCc1nc(-c2cccs2)no1 (configuration not stated),> 100 µM
10,CC(Cn1cccn1)NCc1nc(-c2ccccn2)no1 (configuration not stated),> 100 µM
11,Cc1cnn(CC(C)NCc2nc(-c3cccs3)no2)c1 (configuration not stated),> 100 µM
12,CC(Cn1cccn1)NCc1nc(-c2ccco2)no1 (configuration not stated),> 100 µM
13,c1csc(-c2noc(CNCCn3cccn3)n2)c1,> 100 µM
14,CC(Cn1cccn1)NCc1nc(-c2ccsc2)no1 (configuration not stated),> 100 µM
15,CC(Cn1cccn1)NCc1nc(-c2ccccc2Cl)no1 (configuration not stated),> 100 µM
16,COc1ccc(OC)c(CNCc2ccnc(N3CCCCC3)c2)c1,> 100 µM
17,COc1cc(CNCc2ccnc(N3CCCCC3)c2)cc(OC)c1,> 100 µM
18,CS(=O)(=O)c1ccc(CNC(=O)Nc2cn[nH]c2)cc1,> 100 µM
19,CNS(=O)(=O)c1ccc(CNC(=O)Nc2cn[nH]c2)cc1,> 100 µM
20,CNS(=O)(=O)Cc1cccc(CNC(=O)Nc2cn[nH]c2)c1,> 100 µM
21,CCOCC(O)CN1CCN(C(=O)c2ccc(N(C)C)nn2)CC1 (configuration not stated),> 100 µM
22,CN(C)c1ccc(C(=O)N2CCN(CC(O)C(C)(C)C)CC2)nn1 (configuration not stated),> 100 µM
23,CC(O)CN1CCN(C(=O)c2ccc(N3CCCC3)nn2)CC1 (configuration not stated),> 100 µM
24,CN(C)c1ccc(C(=O)N2CCN(CC(C)(C)O)CC2)nn1,> 100 µM
25,CCC(O)CN1CCN(C(=O)c2ccc(N(C)C)nn2)CC1 (configuration not stated),> 100 µM
26,Cn1ccnc1CN1CCCN(C(=O)COCC2CC2)CC1,> 100 µM

row,SMILES,IC50
1,CC(Oc1ccccc1)C(=O)N1CCCN(Cc2nccn2C)CC1 (configuration not stated),> 100 µM
2,CSC(C)C(=O)N1CCCN(Cc2nccn2C)CC1 (configuration not stated),> 100 µM
3,CC(OCC1CC1)C(=O)N1CCCN(Cc2nccn2C(C)C)CC1 (configuration not stated),> 100 µM
4,Cn1ccnc1CN1CCCN(C(=O)CC(C2CC2)C2CC2)CC1,> 100 µM
5,CC(C)c1nc2n(n1)CC(NCc1nc(C3CC3)no1)CC2 (configuration not stated),> 100 µM
6,CCCc1nc(C)c(C(=O)NCCNc2ncccc2C#N)s1,> 100 µM
7,Cc1nc(C(C)(C)C)sc1C(=O)NCCNc1ncccc1C#N,> 100 µM
8,Cc1ncsc1C(=O)NCCNc1ncccc1C#N,> 100 µM
9,CCc1nc(C)c(C(=O)NCCNc2ncccc2C#N)s1,> 100 µM
10,Cc1ncc(C(=O)NCCNc2ncccc2C#N)s1,> 100 µM
11,Cc1nc(C(C)C)sc1C(=O)NCCNc1ncccc1C#N,> 100 µM
12,Cc1nc(C)c(C(=O)NCCNc2ncccc2C(F)(F)F)s1,> 100 µM
13,CCCn1nc2c(cc1=O)CN(Cc1nnc(C3CC3)o1)CC2,> 100 µM
14,CC(C)n1nc2c(cc1=O)CN(Cc1nnc(C3CC3)o1)CC2,> 100 µM
15,CCn1nc2c(cc1=O)CN(Cc1nnc(C3CC3)o1)CC2,> 100 µM
16,Cc1nc(C)n(CC2CCCCN2Cc2ncc(C(C)(C)C)o2)n1 (configuration not stated),> 100 µM
17,CC(NC(=O)NCCNc1ncccn1)c1cccs1 (configuration not stated),> 100 µM
18,CC(C)C(NC(=O)NCCNc1ccccn1)c1cccs1 (configuration not stated),> 100 µM
19,CC(C)(C)c1cnc(CN2CCC[C@H]2CO)o1,> 100 µM
20,Cc1nc(C)n(CC2CCCCN2Cc2nnc(C3CC3)o2)n1 (configuration not stated),> 100 µM
21,O=C(CC1CCCO1)NCc1ccccc1Cn1cncn1 (configuration not stated),> 100 µM
22,O=C(CCNC(=O)C1CCCC1)NCc1ccccc1Cn1cncn1,> 100 µM
23,O=C(CCNC(=O)C1CCCC1)NCc1cccnc1-n1cncn1,> 100 µM
24,COc1ccc(-c2noc(CNC(C)Cn3cccn3)n2)c(OC)c1 (configuration not stated),> 100 µM
25,CC(Cn1cccn1)NCc1nc(-c2cccc(Cl)c2)no1 (configuration not stated),> 100 µM
26,CC(Cn1cccn1)NCc1nc(-c2cccs2)no1 (configuration not stated),> 100 µM

row,SMILES,IC50
1,COc1ccc(CNCc2ccnc(N3CCOCC3)c2)cc1OC,> 100 µM
2,COc1ccc(CNCc2ccc(N3CCCCC3)nc2)cc1OC,> 100 µM
3,COc1ccc(CNCc2ccnc(N3CCCCC3)c2)cc1OC,> 100 µM
4,CNS(=O)(=O)Cc1ccc(CNC(=O)Nc2cccnc2)cc1,> 100 µM
5,COCCNc1ccc(CNC(=O)Nc2cn[nH]c2)cc1,> 100 µM
6,CC(O)CN1CCN(C(=O)c2ccc(N(C)C)nc2)CC1 (configuration not stated),> 100 µM
7,CC(O)CN1CCN(C(=O)c2ccc(N(C)C)nn2)CC1 (configuration not stated),> 100 µM
8,CC(OCC1CC1)C(=O)N1CCCN(Cc2cnn(C)c2)CC1 (configuration not stated),> 100 µM
9,CC(OCC1CC1)C(=O)N1CCCN(Cc2nccn2C)CC1 (configuration not stated),> 100 µM
10,CC(C)c1nc2n(n1)CC(NCc1nnnn1C1CC1)CC2 (configuration not stated),> 100 µM
11,CC(C)c1nc2n(n1)CC(NCc1nnc(-c3ccco3)o1)CC2 (configuration not stated),> 100 µM
12,Cc1nc(C)c(C(=O)NCCNc2ncccc2C#N)s1,> 100 µM
13,Cc1ccc(C(=O)NCCNc2ncccc2C#N)c(=O)[nH]1,> 100 µM
14,COc1ccc(CNCc2ccnc(N3CCCC3)c2)c(OC)c1,> 100 µM
15,COc1cc(CNCc2ccnc(N3CCCC3)c2)cc(OC)c1,> 100 µM
16,O=C(Cc1ccsc1)N1C[C@@H]2COC[C@]2(COCc2cccnc2)C1,> 100 µM
17,Cc1ccoc1C(=O)N1C[C@@H]2COC[C@]2(COCc2cccnc2)C1,> 100 µM
18,Cc1ccccc1C(=O)N1C[C@@H]2COC[C@]2(COCc2cccnc2)C1,> 100 µM
19,O=C(c1ccccc1F)N1C[C@@H]2COC[C@]2(COCc2cccnc2)C1,> 100 µM
20,O=C(Cc1cccs1)N1C[C@@H]2COC[C@]2(COCc2cccnc2)C1,> 100 µM
21,CC[C@H]1N(CC2CCC2)CCC[C@]12CCC(=O)N2Cc1ccncc1,> 100 µM
22,CCCN1CCC[C@]2(CCC(=O)N2Cc2ccncc2)[C@H]1CC,> 100 µM
23,CC[C@@H]1N(C)CCC[C@]12CCC(=O)N2Cc1ccncc1,> 100 µM
24,CC[C@H]1N(C)CCC[C@]12CCC(=O)N2Cc1ccncc1,> 100 µM

# Test system: Plasmodium falciparum
# Test: Plasmodium falciparum sporozoite viability assay
# Type: functional, organism-based
# Details: not given
row,SMILES,pIC50
1,Cc1csc(NC(=O)c2cnc(C3CCCN3)cn2)n1.Cl (configuration not stated),7.11

# Same assay, conditions: Plasmodium falciparum
row,SMILES,IC50
1,Cc1cccc(NC2CCN(C(=O)Nc3ccc(F)c(F)c3)CC2)n1,7.62 µM
2,Cc1csc(NC(=O)c2cnc(C3CCCN3)cn2)n1.Cl (configuration not stated),0.153 µM
